Structures are written as SMILES. Where only a bound is given, the exact number is not on record here.

For this experiment, the target named is mTOR/GbL/Raptor (mTORC1) (Homo sapiens, UniProt P42345). The experiment is described as follows: mTOR/GbL/Raptor (mTORC1) ELISA assay. The format is biochemical. Conditions: phosphorylation of 4E-BP1; 0.2 nM mTORC1, 10 μM ATP; read-out: IC50 in this assay (mTORC1 ELISA). The method in brief: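 Human mTORC1 (0.2 nM) phosphorylated 50 nM His-tagged 4E-BP1 with 10 µM ATP in HEPES pH 7.2 containing 10 mM MnCl2, 120 min at ambient temperature. Substrate was captured on Ni-chelate plates; phospho-4E-BP1 was detected by primary antibody and HRP secondary with luminescence.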
On the technique in general: In an ELISA, binding on a coated surface is turned into a signal by an enzyme label.

On to `CCNc1nc2ccc(-c3ccc4c(c3)CN(c3nc(CC)nc5cc(OC)ccc35)CCO4)cc2[nH]1` [Example 279, N-ethyl-6-{4-[2-ethyl-7-(methyloxy)quinazolin-4-yl]-2,3,4,5-tetrahydro-1,4-benzoxazepin-7-yl}-1H-benzimidazol-2-amine], for which the IC50 fell in the range of 250 to 1000 nM.

As for `Cc1ncnc(N2CCOc3ccc(-c4ccc(C(=O)NCC(F)F)cc4)cc3C2)c1Cc1ccc(F)cc1` [Example 174, N-(2,2-difluoroethyl)-4-(4-{5-[(4-fluorophenyl)methyl]-6-methylpyrimidin-4-yl}-2,3,4,5-tetrahydro-1,4-benzoxazepin-7-yl)benzamide], the IC50 was not above 10 nM.

As for `CCc1c(C)nc(CN(C)C)nc1N1CCOc2ccc(-c3cnc4[nH]c(C)nc4c3)cc2C1` [Example 350, 1-{5-ethyl-4-methyl-6-[7-(2-methyl-3H-imidazo[4,5-b]pyridin-6-yl)-2,3-dihydro-1,4-benzoxazepin-4(5H)-yl]pyrimidin}-N,N-dimethylmethanamine], the IC50 fell in the range of 50 to 250 nM.

Turning to `CC1(C)CCc2ncnc(N3CCOc4ccc(-c5cnc(N)c(S(=O)(=O)NCCF)c5)cc4C3)c2C1` [Example 366, 2-amino-5-[4-(6,6-dimethyl-5,6,7,8-tetrahydroquinazolin-4-yl)-2,3,4,5-tetrahydro-1,4-benzoxazepin-7-yl]-N-(2-fluoroethyl)pyridine-3-sulfonamide], the IC50 lay in the range of 10 to 50 nM.

Consider `Cc1nc2ncc(-c3ccc4c(c3)CN(c3ncnc(N5CCC5)c3C)CCO4)cc2[nH]1` [Example 480, 4-(6-azetidin-1-yl-5-methylpyrimidin-4-yl)-7-(2-methyl-1H-imidazo[4,5-b]pyridin-6-yl)-2,3,4,5-tetrahydro-1,4-benzoxazepine], for which the 50% inhibitory concentration (IC50) fell in the range of 250 to 1000 nM.

Take `CCN(Cc1nc2c(c(N3CCOc4ccc(-c5cnc6nc(C)[nH]c6c5)cc4C3)n1)CC(C)(C)CC2)C(C)C` [Example 603, N-({6,6-dimethyl-4-[7-(2-methyl-1H-imidazo[4,5-b]pyridin-6-yl)-2,3-dihydro-1,4-benzoxazepin-4(5H)-yl]-5,6,7,8-tetrahydroquinazolin-2-yl}methyl)-N-ethylpropan-2-amine]: the IC50 is 50 to 250 nM.

For the compound `Cc1nc2ncc(-c3ccc4c(c3)CN(c3nc(CN(C)C)nc5ccc(F)cc35)CCO4)cc2[nH]1` [Example 359, 1-{6-fluoro-4-[7-(2-methyl-1H-imidazo[4,5-b]pyridin-6-yl)-2,3-dihydro-1,4-benzoxazepin-4(5H)-yl]quinazolin-2-yl}-N,N-dimethylmethanamine], the IC50 was 250 to 1000 nM.

For the compound `CC1(C)CCc2ncnc(N3CCOc4ccc(-c5cnc(N)c(S(=O)(=O)N6CCC6)c5)cc4C3)c2C1` [Example 434, 3-(azetidin-1-ylsulfonyl)-5-[4-(6,6-dimethyl-5,6,7,8-tetrahydroquinazolin-4-yl)-2,3,4,5-tetrahydro-1,4-benzoxazepin-7-yl]pyridine-2-amine], the IC50 fell in the range of 10 to 50 nM.

Take `CCc1ncnc(N2CCOc3ccc(-c4ccc5nc(C)[nH]c5c4)cc3C2)c1C` [Example 56, 4-(6-ethyl-5-methylpyrimidin-4-yl)-7-(2-methyl-1H-benzimidazol-6-yl)-2,3,4,5-tetrahydro-1,4-benzoxazepine]: the IC50 lay in the range of 250 to 1000 nM.

For `c1ccc2c(N3CCOc4ccc(-c5ccc6nc[nH]c6c5)cc4C3)ccnc2c1` [Example 126, 7-(1H-benzimidazol-6-yl)-4-quinolin-4-yl-2,3,4,5-tetrahydro-1,4-benzoxazepine], the IC50 was in the range of 250 to 1000 nM.

In the case of `Cc1ncnc(N2CCOc3ccc(-c4ccc5nc(N)sc5n4)cc3C2)c1Cc1ccc(F)cc1` [Example 140, 5-(4-{5-[(4-fluorophenyl)methyl]-6-methylpyrimidin-4-yl}-2,3,4,5-tetrahydro-1,4-benzoxazepin-7-yl)[1,3]thiazolo[5,4-b]pyridin-2-amine], the IC50 was in the range of 10 to 50 nM.

Regarding `CCNc1nc2ccc(-c3ccc4c(c3)CN(c3cc(C)nc5cc(OC)ccc35)CCO4)cc2[nH]1` [Example 247, N-ethyl-6-{4-[2-methyl-7-(methyloxy)quinolin-4-yl]-2,3,4,5-tetrahydro-1,4-benzoxazepin-7-yl}-1H-benzimidazol-2-amine], the IC50 is 250 to 1000 nM.

For the compound `CC1(C)CCc2ncnc(N3CCOc4ccc(-c5cnc6nc[nH]c6c5)cc4C3)c2C1` [Example 221, 4-(6,6-dimethyl-5,6,7,8-tetrahydroquinazolin-4-yl)-7-(1H-imidazo[4,5-b]pyridin-6-yl)-2,3,4,5-tetrahydro-1,4-benzoxazepine], the IC50 was not above 10 nM.

On to `CCc1c(C)nc(C)nc1N1CCOc2ccc(-c3cnc4nc(C)[nH]c4c3)cc2C1` [Example 469, 4-(5-ethyl-2,6-dimethylpyrimidin-4-yl)-7-(2-methyl-1H-imidazo[4,5-b]pyridin-6-yl)-2,3,4,5-tetrahydro-1,4-benzoxazepine], for which the IC50 is 50 to 250 nM.

`CNC(=O)c1ccc(-c2ccc3c(c2)CN(c2nc(CN(C)C)nc4c2CC(C)(C)CC4)CCO3)cc1` [Example 466, 4-(4-{2-[(dimethylamino)methyl]-6,6-dimethyl-5,6,7,8-tetrahydroquinazolin-4-yl}-2,3,4,5-tetrahydro-1,4-benzoxazepin-7-yl)-N-methylbenzamide]: the IC50 is 50 to 250 nM.

For `CN(C)Cc1nc2ncc(-c3ccc4c(c3)CN(c3ncnc5c3CC(C)(C)CC5)CCO4)cc2[nH]1` [Example 357, 1-{6-[4-(6,6-dimethyl-5,6,7,8-tetrahydroquinazolin-4-yl)-2,3,4,5-tetrahydro-1,4-benzoxazepin-7-yl]-1H-imidazo[4,5-b]pyridin-2-yl}-N,N-dimethylmethanamine], the IC50 is 250 to 1000 nM.

Turning to `CC[C@H]1CCc2c(ncnc2N2CCOc3ccc(-c4cnc5nc(C)[nH]c5c4)cc3C2)C1` [Example 488, 4-[(7S)-7-ethyl-5,6,7,8-tetrahydroquinazolin-4-yl]-7-(2-methyl-1H-imidazo[4,5-b]pyridin-6-yl)-2,3,4,5-tetrahydro-1,4-benzoxazepine], the IC50 is not above 10 nM.

Turning to `CCc1c(C(C)C)ncnc1N1CCOc2ccc(-c3ccc4nc(C)[nH]c4c3)cc2C1` [Example 61, 4-[5-ethyl-6-(1-methylethyl)pyrimidin-4-yl]-7-(2-methyl-1H-benzimidazol-6-yl)-2,3,4,5-tetrahydro-1,4-benzoxazepine], the IC50 was in the range of 50 to 250 nM.

Turning to `COc1cc2ncnc(N3CCOc4ccc(-c5ccc6nc(C)[nH]c6c5)cc4C3)c2cc1I` [Example 37, 4-[6-iodo-7-(methyloxy)quinazolin-4-yl]-7-(2-methyl-1H-benzimidazol-6-yl)-2,3,4,5-tetrahydro-1,4-benzoxazepine], the IC50 is 10 to 50 nM.

Take `Cc1ncnc(N2CCOc3ccc(-c4ccc5[nH]nc(N)c5c4)cc3C2)c1Cc1ccc(F)cc1` [Example 249, 5-(4-{5-[(4-fluorophenyl)methyl]-6-methylpyrimidin-4-yl}-2,3,4,5-tetrahydro-1,4-benzoxazepin-7-yl)-1H-indazol-3-amine]: the IC50 lay within 50 to 250 nM.

As to `Cc1nc2ccc(-c3ccc4c(c3)CN(c3ncnc5ccc(OCCCN(C)C)cc35)CCO4)cc2[nH]1` [Example 161, N,N-dimethyl-3-({4-[7-(2-methyl-1H-benzimidazol-6-yl)-2,3-dihydro-1,4-benzoxazepin-4(5H)-yl]quinazolin-6-yl}oxy)propan-1-amine], the IC50 is 1000 to 2000 nM.

As to `c1ccc2c(N3CCOc4ccc(-c5ccc6nc(C7CCCCN7)[nH]c6c5)cc4C3)ccnc2c1` (stereo not shown) [Example 202, 7-(2-piperidin-2-yl-1H-benzimidazol-6-yl)-4-quinolin-4-yl-2,3,4,5-tetrahydro-1,4-benzoxazepine], the IC50 lay in the range of 250 to 1000 nM.

With `COc1ccc2c(N3CCOc4ccc(-c5ccc6nc(N)[nH]c6c5)cc4C3)nc(C)nc2c1` [Example 539, 6-{4-[2-methyl-7-(methyloxy)quinazolin-4-yl]-2,3,4,5-tetrahydro-1,4-benzoxazepin-7-yl}-1H-benzimidazol-2-amine], the half-inhibitory concentration (IC50) lay within 50 to 250 nM.

With `CC1(C)CCc2ncnc(N3CCOc4ccc(-c5cnc(N)c(S(=O)(=O)N6CC(F)(F)C6)c5)cc4C3)c2C1` [Example 438, 3-[(3,3-difluoroazetidin-1-yl)sulfonyl]-5-[4-(6,6-dimethyl-5,6,7,8-tetrahydroquinazolin-4-yl)-2,3,4,5-tetrahydro-1,4-benzoxazepin-7-yl]pyridin-2-amine], the IC50 lay in the range of 50 to 250 nM.

On to `Cc1ncnc(N2CCOc3ccc(-c4cnc5sc(N)nc5c4)cc3C2)c1Cc1ccc(F)cc1` [Example 217, 6-(4-{5-[(4-fluorophenyl)methyl]-6-methylpyrimidin-4-yl}-2,3,4,5-tetrahydro-1,4-benzoxazepin-7-yl)[1,3]thiazolo[5,4-b]pyridin-2-amine], for which the IC50 was not above 10 nM.

Turning to `Cc1nc(CNCCF)nc(N2CCOc3ccc(-c4cnc5sc(N)nc5c4)cc3C2)c1C(C)C` [Example 680, 6-{4-[2-{[(2-fluoroethyl)amino]methyl}-6-methyl-5-(1-methylethyl)pyrimidin-4-yl]-2,3,4,5-tetrahydro-1,4-benzoxazepin-7-yl}[1,3]thiazolo[5,4-b]pyridin-2-amine], the IC50 was not above 10 nM.

On to `CC1(C)CCc2ncnc(N3CCOc4ccc(-c5cnc(N)c(S(=O)(=O)N6CC[C@@H](O)C6)c5)cc4C3)c2C1` [Example 305, (3R)-1-({2-amino-5-[4-(6,6-dimethyl-5,6,7,8-tetrahydroquinazolin-4-yl)-2,3,4,5-tetrahydro-1,4-benzoxazepin-7-yl]pyridin-3-yl}sulfonyl)pyrrolidin-3-ol], for which the IC50 lay in the range of 10 to 50 nM.

In the case of `Cc1nc2cc(-c3ccc4c(c3)CN(c3nc(CN(C)C)nc(C)c3Cc3ccc(F)cc3)CCO4)cnc2[nH]1` [Example 348, 1-{5-[(4-fluorophenyl)methyl]-4-methyl-6-[7-(2-methyl-3H-imidazo[4,5-b]pyridin-6-yl)-2,3-dihydro-1,4-benzoxazepin-4(5H)-yl]pyrimidin-2-yl}-N,N-dimethylmethanamine], the IC50 is not above 10 nM.

As a reminder, the IC50 is the concentration at which inhibition is half-maximal.
